Experiments:
[1] = tested on: Southern armyworm (Spodoptera eridania), third instar; test: Lima bean leaf-dip test against Southern armyworm; assay type: in vivo
Procedure: Performance of EC formulations according to the invention against Southern armyworm (Spodoptera eridania), third instar
A stock solution of metaflumizone formulation is diluted into a container of water. Lima bean leaves are dipped into treatment solutions and allowed to air-dry. A single treated leaf is placed topside-up onto water-moistened filter paper in multiple plastic petri dishes. Seven larvae are placed onto each leaf and then each arena is sealed with petri dish covers. Each treatment replicated 4-fold (1 replicate=1 petri dish arena). Following treatment application, infested plants are held in the laboratory under fluorescent lighting and constant 26° C. Larval mortality/morbidity (i.e., number dead/number tested) is assessed at 5 days post-treatment. The mortality levels based on number of live larve.

[2] = tested on: Colorado potato beetle (Leptinotarsa decemlineata); test: Field trial against Colorado potato beetle in potatoes; assay type: in vivo; conditions: 60 g AI/HA
Procedure: Performance of EC formulations according to the invention against the Colorado potato beetle (Leptinotarsa decemlineata) in potatoes
The trial was arranged in a randomized complete block design with three replications. Plots were 5 m long and one row (1 m) wide. Applications were conducted with a fournozzle row crop boom delivering side and overhead coverage, at 3-bar pressure and 400 l/ha. Numbers of larvae (L1/2) (L3/4) were recorded per plot at 2, 5 and 14 DAT (day after treatment) and a defoliation assessment was made at 14 DAT. Colorado potato beetle pressure was high resulting in complete defoliation in the controls at 19 DAT.

[3] = larval mortality at 5 days post-treatment, Log Dose-Probit analysis

N#Cc1ccc(CC(=NNC(=O)Nc2ccc(OC(F)(F)F)cc2)c2cccc(C(F)(F)F)c2)cc1 [metaflumizone]
LC50 [1, 3]: 1.50 ppm | LC90 [1, 3]: 7.70 ppm | Biological Enhancement ([1]; relative to metaflumizone dispersed in water (standard control)): 1x (standard control) | Mean # of L1/L2 per plot ([2]; 2 DAT): .3b | Mean # of L3/L4 per plot ([2]; 2 DAT): .3b | Mean # of L1/L2 per plot ([2]; 5 DAT): 4b | Mean # of L3/L4 per plot ([2]; 5 DAT): 2b | % Defoliation ([2]; 14 DAT): 18a % | Mean # of L1/L2 per plot ([2]; 14 DAT): .3a | Mean # of L3/L4 per plot ([2]; 14 DAT): 7ab

From US20100137375A1, “Emulsifiable Concentrate” (BASF SE, priority 2005, published 2010)
